{"source": "paper PMC5917010", "about": "“Structural basis for GPR40 allosteric agonism and incretin stimulation” (Nature Communications, 2018)", "key": {"hCDK1": {"target": "hCDK1 (Homo sapiens, UniProt P06493)", "sequence (P06493 whole entry)": "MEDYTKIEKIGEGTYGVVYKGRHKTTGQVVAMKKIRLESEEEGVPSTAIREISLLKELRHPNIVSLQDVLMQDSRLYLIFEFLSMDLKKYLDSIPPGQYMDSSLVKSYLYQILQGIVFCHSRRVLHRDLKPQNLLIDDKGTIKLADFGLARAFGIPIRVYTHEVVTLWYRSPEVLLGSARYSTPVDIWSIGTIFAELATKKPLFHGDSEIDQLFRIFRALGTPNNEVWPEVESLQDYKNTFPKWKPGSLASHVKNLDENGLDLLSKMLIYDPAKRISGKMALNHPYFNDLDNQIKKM", "sequence (P14635 whole entry partner)": "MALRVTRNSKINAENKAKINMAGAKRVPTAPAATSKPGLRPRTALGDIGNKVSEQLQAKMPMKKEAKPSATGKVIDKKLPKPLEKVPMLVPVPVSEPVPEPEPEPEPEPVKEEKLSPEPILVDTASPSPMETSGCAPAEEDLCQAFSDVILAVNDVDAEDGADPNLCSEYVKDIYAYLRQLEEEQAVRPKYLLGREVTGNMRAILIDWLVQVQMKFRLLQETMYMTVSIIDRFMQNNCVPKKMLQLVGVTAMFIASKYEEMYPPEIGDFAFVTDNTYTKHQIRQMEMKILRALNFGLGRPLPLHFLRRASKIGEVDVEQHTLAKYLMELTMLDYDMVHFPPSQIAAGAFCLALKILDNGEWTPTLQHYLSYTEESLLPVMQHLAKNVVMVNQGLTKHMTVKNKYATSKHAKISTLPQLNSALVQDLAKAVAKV", "assay": "hCDK1 binding"}, "[1]": {"system": "GPCRs (including GPR120), NHRs and Kinases", "assay": "Selectivity panels against GPCRs, NHRs and Kinases"}, "GPR40 L112A": {"target": "GPR40 L112A (Homo sapiens, UniProt O14842, L112A)", "sequence (O14842 whole entry L112A)": "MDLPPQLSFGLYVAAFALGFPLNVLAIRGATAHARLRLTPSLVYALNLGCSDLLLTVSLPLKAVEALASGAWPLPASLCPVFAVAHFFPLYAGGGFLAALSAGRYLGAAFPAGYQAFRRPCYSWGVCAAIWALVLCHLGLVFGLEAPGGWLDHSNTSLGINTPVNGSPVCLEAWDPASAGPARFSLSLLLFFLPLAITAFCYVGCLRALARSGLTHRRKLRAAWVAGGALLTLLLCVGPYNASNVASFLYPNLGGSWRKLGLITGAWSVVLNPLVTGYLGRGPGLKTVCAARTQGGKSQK", "assay": "cAMP accumulation assay, L112A mutant", "procedure": "(§1) HEK293 cells transiently transfected with Promega’s cAMP response element (CRE/luc2P) and a GPR40 construct were plated (40K cells/well) into 96-well microtiter plates using Dulbecco’s Modified Eagle’s Medium (DMEM) supplemented with 10% FBS, 20 mM HEPES, pH 7.4, 100 U/mL Penicillin, 100 µg/mL Streptomycin, and 800 µg/mL Geneticin. Test compounds were serially diluted three-fold in 100% DMSO and immediately diluted in media. […] EC50 values were calculated using a four-parameter logistic curve fitting equation."}, "hD1": {"target": "hD1 (Homo sapiens, UniProt P21728)", "sequence (P21728 whole entry)": "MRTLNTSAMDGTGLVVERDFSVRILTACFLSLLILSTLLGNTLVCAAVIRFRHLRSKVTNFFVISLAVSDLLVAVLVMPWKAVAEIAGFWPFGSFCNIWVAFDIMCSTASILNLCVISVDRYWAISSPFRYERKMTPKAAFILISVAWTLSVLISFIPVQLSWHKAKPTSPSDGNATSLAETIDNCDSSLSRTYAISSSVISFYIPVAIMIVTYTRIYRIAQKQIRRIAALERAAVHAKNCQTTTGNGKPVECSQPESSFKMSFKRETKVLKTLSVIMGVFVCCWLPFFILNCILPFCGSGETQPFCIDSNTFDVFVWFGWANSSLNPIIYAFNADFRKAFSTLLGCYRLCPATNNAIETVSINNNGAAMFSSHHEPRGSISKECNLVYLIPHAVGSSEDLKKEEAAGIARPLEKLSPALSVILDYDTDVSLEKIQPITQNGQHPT", "assay": "hD1 cAMP", "type": "cell-based", "conditions": "read-out: hD1 cAMP Rel EC50"}, "PPAR": {"system": "PPAR", "assay": "PPAR binding and functional assays at multiple concentrations", "conditions": "all PPAR binding and functional assays"}, "hM1": {"target": "hM1 (Homo sapiens, UniProt P11229)", "sequence (P11229 whole entry)": "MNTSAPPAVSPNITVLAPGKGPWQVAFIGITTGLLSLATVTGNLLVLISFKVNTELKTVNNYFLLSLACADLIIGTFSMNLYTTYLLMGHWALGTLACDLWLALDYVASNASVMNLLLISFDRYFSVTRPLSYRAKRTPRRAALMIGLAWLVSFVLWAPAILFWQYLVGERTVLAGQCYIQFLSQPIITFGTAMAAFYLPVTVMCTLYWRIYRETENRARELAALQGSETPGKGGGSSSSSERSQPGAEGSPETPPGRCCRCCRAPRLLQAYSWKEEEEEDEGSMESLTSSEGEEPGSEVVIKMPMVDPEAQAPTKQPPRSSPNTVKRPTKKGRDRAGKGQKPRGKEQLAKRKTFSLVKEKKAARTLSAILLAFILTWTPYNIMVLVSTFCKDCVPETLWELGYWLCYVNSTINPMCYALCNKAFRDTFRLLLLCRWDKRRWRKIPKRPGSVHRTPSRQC", "assay": "hM1 binding", "conditions": "read-out: hM1 binding Rel IC50"}, "GPR40 L112F": {"target": "GPR40 L112F (Homo sapiens, UniProt O14842, L112F)", "sequence (O14842 whole entry L112F)": "as the sequence (O14842 whole entry L112A) above, with A112F counted along it", "assay": "cAMP accumulation assay, L112F mutant", "procedure": "as §1"}, "human GPR40": {"target": "T1, human GPR40 (Homo sapiens, UniProt O14842)", "T1 construct": "HEK293 cells stably overexpressing full length human GPR40; expressed in transfected cells", "assay": "Human GPR40 b-arrestin", "type": "cell-based"}, "GPR40 Y114F": {"target": "GPR40 Y114F (Homo sapiens, UniProt O14842, Y114F)", "sequence (O14842 whole entry Y114F)": "as the sequence (O14842 whole entry L112A) above, with A112L, Y114F counted along it", "assay": "cAMP accumulation assay, Y114F mutant", "procedure": "as §1"}, "GPR40 KO mice": {"system": "GPR40 KO mice", "assay": "Incretin secretion assay in GPR40 KO mice", "type": "in vivo, mouse"}}}
{"smiles": "COc1ccc(C(=O)N(CC(C)(C)C)c2cccc(C)n2)c(N2CCC(c3cc4ccc([C@@H](CC(=O)O)C5CC5)cc4o3)CC2)c1", "note": "[compound 1]", "values": [{"measurement": "IC50", "setting": "hCDK1", "value": "> 20", "unit": "µM"}, {"measurement": "selectivity in selectivity panels", "setting": "[1]", "value": "highly selective"}, {"measurement": "EC50", "setting": "GPR40 L112A", "value": "> 30", "unit": "µM"}, {"measurement": "EC50", "setting": "hD1", "value": "> 80", "unit": "µM"}, {"measurement": "PPAR binding or functional activities", "setting": "PPAR", "value": "lack of significant PPAR binding or functional activities"}, {"measurement": "IC50", "setting": "hM1", "value": "> 10", "unit": "µM"}, {"measurement": "EC50", "setting": "GPR40 L112F", "value": 0.06, "unit": "µM"}, {"measurement": "improvement in EC50 in L112F mutant over wild type", "setting": "GPR40 L112F; cAMP accumulation, 240 min", "value": 3, "unit": "fold"}, {"measurement": "EC50", "setting": "human GPR40", "value": 0.0019, "unit": "µM"}, {"measurement": "Emax", "setting": "human GPR40", "value": 172, "unit": "%"}, {"measurement": "EC50", "setting": "GPR40 Y114F", "value": 11, "unit": "µM"}, {"measurement": "plasma active GIP concentrations, GPR40 KO", "setting": "GPR40 KO mice", "value": "no effect"}, {"measurement": "plasma total GLP-1 concentrations, GPR40 KO", "setting": "GPR40 KO mice", "value": "no effect"}]}
